Values of other authors as cited in patent US20240108697A1, “ANTIMICROBIAL COMPOSITIONS” (Matoke Holdings Limited, priority 2020, published 2024).

Assays:
[1] = at 20° C. and 1 atm
[2] = system: Human Fibroblast Cell Migration; details: in the presence of 30 mM glucose

SMILES | solubility [1] | mobilisation of fibroblasts in a cell culture system [2]
O=C(CO)[C@@H](O)[C@H](O)[C@H](O)CO [Fructose] | about 375 g/100 g water | 
O=C[C@H](O)[C@@H](O)[C@H](O)[C@H](O)CO [Glucose] | 90 g/100 g water | poor mobilisations of fibroblasts
